Experiment: xn = mol fraction of the nth substance listed
Conditions: 101 kPa, Liquid, Pycnometric method

C=CC(=O)OCCCC [butyl 2-propenoate] + Cc1cc(C)cc(C)c1
mass density [kg/m3]
Conditions	288.15 K	293.15 K	298.15 K	303.15 K	308.15 K	313.15 K	318.15 K
x1 = 0.0724	871.63	867.64	863.65	859.66	855.67	851.68	847.69
x1 = 0.1414	873.88	869.82	865.76	861.7	857.64	853.58	849.52
x1 = 0.2135	876.24	872.11	867.99	863.87	859.75	855.63	851.51
x1 = 0.2846	878.6	874.42	870.24	866.06	861.88	857.71	853.54
x1 = 0.3512	880.84	876.6	872.37	868.14	863.91	859.68	855.45
x1 = 0.4223	883.26	878.97	874.68	870.39	866.1	861.81	857.53
x1 = 0.4998	885.94	881.58	877.22	872.87	868.52	864.17	859.82
x1 = 0.5724	888.47	884.05	879.63	875.21	870.8	866.39	861.98
x1 = 0.6578	891.46	886.97	882.48	877.99	873.5	869.02	864.54
x1 = 0.7131	893.41	888.87	884.33	879.8	875.27	870.74	866.21
x1 = 0.7823	895.86	891.26	886.66	882.07	877.48	872.89	868.3
x1 = 0.8563	898.49	893.83	889.17	884.52	879.87	875.22	870.57
x1 = 0.9295	901.09	896.38	891.67	886.96	882.26	877.56	872.86
x1 = 1	903.6	898.85	894.1	889.35	884.6	879.85	875.1

C=CC(=O)OCCCC [butyl 2-propenoate] + Cc1ccc(C)cc1
mass density [kg/m3]
Conditions	288.15 K	293.15 K	298.15 K	303.15 K	308.15 K	313.15 K	318.15 K
x1 = 0.0712	868.91	864.5	860.09	855.68	851.28	846.88	842.48
x1 = 0.1429	872.25	867.79	863.33	858.87	854.42	849.97	845.52
x1 = 0.213	875.39	870.89	866.39	861.89	857.39	852.9	848.41
x1 = 0.2833	878.45	873.91	869.37	864.84	860.31	855.78	851.25
x1 = 0.3623	881.76	877.19	872.62	868.05	863.48	858.91	854.34
x1 = 0.4313	884.56	879.95	875.34	870.74	866.14	861.54	856.94
x1 = 0.5088	887.58	882.94	878.3	873.66	869.03	864.4	859.77
x1 = 0.5829	890.35	885.68	881.01	876.34	871.68	867.02	862.36
x1 = 0.6542	892.91	888.21	883.51	878.82	874.13	869.44	864.75
x1 = 0.7216	895.22	890.5	885.78	881.06	876.35	871.64	866.93
x1 = 0.7922	897.54	892.8	888.06	883.32	878.58	873.85	869.12
x1 = 0.8586	899.61	894.85	890.09	885.33	880.58	875.83	871.08
x1 = 0.9294	901.67	896.91	892.15	887.39	882.63	877.88	873.13
x1 = 1	903.6	898.85	894.1	889.35	884.6	879.85	875.1

C=CC(=O)OCCCC [butyl 2-propenoate] + Cc1cccc(C)c1
mass density [kg/m3]
Conditions	288.15 K	293.15 K	298.15 K	303.15 K	308.15 K	313.15 K	318.15 K
x1 = 0.0732	871.73	867.39	863.05	858.71	854.37	850.04	845.71
x1 = 0.1432	874.65	870.26	865.87	861.48	857.1	852.72	848.34
x1 = 0.2103	877.37	872.94	868.51	864.08	859.66	855.24	850.82
x1 = 0.2841	880.28	875.81	871.34	866.87	862.41	857.95	853.49
x1 = 0.3605	883.19	878.68	874.17	869.66	865.16	860.66	856.16
x1 = 0.4318	885.82	881.28	876.74	872.2	867.66	863.12	858.58
x1 = 0.5006	888.28	883.7	879.12	874.55	869.98	865.41	860.84
x1 = 0.5778	890.95	886.34	881.73	877.12	872.51	867.9	863.3
x1 = 0.6534	893.46	888.81	884.17	879.53	874.89	870.25	865.61
x1 = 0.7204	895.6	890.93	886.26	881.59	876.92	872.25	867.58
x1 = 0.7935	897.84	893.13	888.43	883.73	879.03	874.33	869.63
x1 = 0.8579	899.73	895	890.27	885.54	880.82	876.1	871.38
x1 = 0.9306	901.78	897.03	892.28	887.53	882.79	878.05	873.31
x1 = 1	903.6	898.85	894.1	889.35	884.6	879.85	875.1

Reference: the NIST ThermoML archive (doi:10.1007/s10765-010-0768-y)
